# Measurements: ChEMBL document CHEMBL1158103, “Theopapuamide, a cyclic depsipeptide from a Papua New Guinea lithistid sponge Theonella swinhoei” (J Nat Prod, 2006)
# Experiments:
# [1] = Cytotoxicity against human HCT 116 cells after 48 hrs by MTT assay; type: functional, cell-based; conditions: HCT-116, 48 h
# [2] = Cytotoxicity against human CEM-TART cells after 72 hrs by MTT assay; type: cell-based
smiles,measurement,setting,value
CCC(C)CC(C)C(O)C(C)C(=O)N[C@H](CN)C(=O)NC(C(O)C(O)C(=O)N[C@H](C(=O)N[C@H]1C(=O)N[C@H]([C@@H](C)O)C(=O)N[C@H](CCCN)C(=O)N[C@@H](CC(C)C)C(=O)N(C)[C@@H](CCC(N)=O)C(=O)N[C@@H]([C@@H](OC)C(N)=O)C(=O)N[C@H](CC(N)=O)C(=O)N(C)[C@@H](CC(C)C)C(=O)O[C@@H]1C)[C@H](C)C(C)C(N)=O)C(C)(C)O (some centres not stated) [THEOPAPUAMIDE],EC50,[1],0.9 µM
same,EC50,[2],0.5 µM
